Source: US8933022B2, “Methods and compositions for the treatment and prevention Hypoglycemia and related disorders” (JDS Therapeutics, LLC, priority 2011, dated 2015)
Marks after values point to notes of the source that are not given here.

What was measured:
[1] = Body weight of type-1 diabetes induced rats (Example 8); type: in vivo, Wistar rats; settings: Example 8, STZ rats, n = 7; for Initial BW: before treatment; for BW Change / Final BW: daily for 26 days
Method: (§1) Forty-two Wistar rats were assigned to one of 6 experimental groups: 1) positive control: rats injected with saline 2) type-1 diabetes group: rats injected with streptozotocin (STZ, 65 mg/kg i.p.) to damage beta cells (n=35). Diabetic rats were then administered with a) none, b) Zn alone (6.23 μg ZnO), c) Cr alone (47.7 μg Cr-histidinate), d) Zn-insulin (6.23 μg ZnO+3 IU Ins/100 g BW), or e) Cr-insulin (47.7 μg Cr-histidinate+3 IU Ins/100 g BW), daily for 26 days (n=7 per subgroup). Body weights were measured at the beginning and end of the experiment.
(§2) Blood samples were collected on days—2 (beginning), 0 (induction), 4, 6, 12, and 26 for blood biochemistry. At the end of the experiment, rats were sacrificed for brain tissue GLUTs (1 and 3). Data were analyzed using one-way ANOVA with LSD option for mean comparison.

[2] = Glucose pattern before and after injection in type-1 diabetes induced rats; type: in vivo, Wistar rats; settings: STZ rats; for Glucose, Day 4, After / Glucose, Day 6, After / Glucose, Day 12, After / Glucose, Day 21, After: after injection; for Glucose, Day 4, After / Glucose, Day 4, Before: no unit in table (mg/dl); for Glucose, Day 6, After / Glucose, Day 12, After / Glucose, Day 21, After / Glucose, Day 6, Before / Glucose, Day 12, Before / Glucose, Day 21, Before: no unit in table; for Glucose, Day 4, Before / Glucose, Day 6, Before / Glucose, Day 12, Before / Glucose, Day 21, Before: before injection
Method: as §1, §2

[3] = Blood biochemistry of type-1 diabetes induced rats at the end of the experiment; type: in vivo, Wistar rats; settings: STZ rats, daily for 26 days
Method: as §1, §2

GLUT-1 [4] = experiment: Cerebral GLUT-1 expression in type-1 diabetes induced rats; type: in vivo, Wistar rats; settings: STZ rats, daily for 26 days; control = 100.00
Method: as §1, §2

GLUT-3 [5] = experiment: Cerebral GLUT-3 expression in type-1 diabetes induced rats; type: in vivo, Wistar rats; settings: STZ rats, daily for 26 days; control = 100.00
Method: Forty-two Wistar rats were assigned to one of 6 experimental groups: 1) positive control: rats injected with saline 2) type-1 diabetes group: rats injected with streptozotocin (STZ, 65 mg/kg i.p.) to damage beta cells (n=35). Diabetic rats were then administered with a) none, b) Zn alone (6.23 μg ZnO), c) Cr alone (47.7 μg Cr-histidinate), d) Zn-insulin (6.23 μg ZnO+3 IU Ins/100 g BW), or e) Cr-insulin (47.7 μg Cr-histidinate+3 IU Ins/100 g BW), daily for 26 days (n=7 per subgroup).
At the end of the experiment, rats were sacrificed for brain tissue GLUTs (1 and 3). Data were analyzed using one-way ANOVA with LSD option for mean comparison.

Tryptophan = experiment: Brain tryptophan in type-1 diabetes induced rats; type: in vivo, Wistar rats; settings: STZ rats, n = 7; footnote: daily for 8 weeks
[6] = system: OCT-1 (organic cation transporter 1); experiment: Kidney OCT-1 levels in type-1 diabetes induced rats; type: in vivo, Wistar rats; settings: bands, STZ rats, n = 7; control = 100.00 (percentage of control)
OCT-2 = experiment: Kidney OCT-2 levels in type-1 diabetes induced rats; type: in vivo, Wistar rats; settings: bands, STZ rats, n = 7; control = 100.00
[7] = system: NFK (nuclear factor kappa B); experiment: Kidney NFK levels in type-1 diabetes induced rats; type: in vivo, Wistar rats; settings: bands, STZ rats, n = 7; control = 100.00
[8] = system: NFK (nuclear factor kappa B); experiment: Brain NFK levels in type-1 diabetes induced rats; type: in vivo, Wistar rats; settings: bands, STZ rats, n = 7; control = 100.00
Method: as §1, §2

insulin = experiment: Brain insulin levels in type-1 diabetes induced rats; type: in vivo, Wistar rats; settings: bands, STZ rats, n = 7; control = 100.00
Method: as §1, §2

[9] = system: MRP2 (multidrug resistance protein 2); experiment: Kidney MRP2 levels in type-1 diabetes induced rats; settings: bands, STZ rats, n = 7; control = 100.00
Method: as §1, §2

[10] = Serum and brain chromium in type-1 diabetes induced rats; settings: STZ rats, n = 7; footnote: daily for 8 weeks
Method: as §1, §2

[11] = Serum glucose 0.5 hrs after insulin injection in insulin-induced hypoglycemic rats; type: in vivo, Sprague-Dawley rats; settings: 15 U insulin/kg i.p., 110 μg/kg/day chromium complex, one week, mean ± s.d.
Serotonin = experiment: Brain serotonin in type-1 diabetes induced rats; type: in vivo, Wistar rats; design: unit not given here; settings: STZ rats, n = 7; footnote: daily for 8 weeks
[12] = Brain chromium levels in insulin-induced hypoglycemic rats; settings: 15 U insulin/kg i.p., 110 μg/kg/day, one week, mean ± s.d.
Method: (§3) In order to evaluate chromium's potential protective effects preventing insulin-induced hypoglycemia, animals were administered insulin to induce hypoglycemia, and markers of hypoglycemic brain damage were compared in animals with and without administration of chromium.
(§4) Briefly, hypoglycemia was induced in Sprague-Dawley rats (males, 8-weeks old) by intraperitoneal injection of 15 U insulin/kg BW. The rats were separated into four groups of 15 rats each: (1) a control group not receiving insulin (“Control”); (2) a group not administered chromium (“Hypo”); (3) a group administered 110 μg/kg/day of chromium picolinate (CrPic); and, a group administered 110 μg/kg/day of chromium histidinate (CrHis). After one week of dosing, brains were removed from the sacrificed rats and analyzed for markers of hypoglycemic damage: GLUT-1; GLUT-3; Nrf2; GFAP; and HNE.

GLUT-1 [13] = experiment: Brain GLUT-1 expression in insulin-induced hypoglycemic rats; settings: 15 U insulin/kg i.p., 110 μg/kg/day, one week, mean ± s.d.
Method: as §3, §4

GLUT-3 [14] = experiment: Brain GLUT-3 expression in insulin-induced hypoglycemic rats; settings: 15 U insulin/kg i.p., 110 μg/kg/day, one week, mean ± s.d.
Method: as §3, §4

HNE = experiment: Hippocampus HNE expression in insulin-induced hypoglycemic rats; settings: 15 U insulin/kg i.p., 110 μg/kg/day, one week, mean ± s.d.
Method: as §3, §4

Nrf2 = experiment: Hippocampus Nrf2 expression in insulin-induced hypoglycemic rats; settings: 15 U insulin/kg i.p., 110 μg/kg/day, one week, mean ± s.d.
Method: as §3, §4

GFAP = experiment: Hippocampus GFAP expression in insulin-induced hypoglycemic rats; settings: 15 U insulin/kg i.p., 110 μg/kg/day, one week, mean ± s.d.
Method: as §3, §4

## [O]=[Zn] [STZ + Zn, zinc oxide]
[1]
  Initial BW: 195.43 ± 7.63 g
  BW Change: −9.71 ± 4.03^bc %
  Final BW: 175.71 ± 7.67^bc g
[2]
  Glucose, Day 4, After: 303
  Glucose, Day 6, After: 372
  Glucose, Day 12, After: 412
  Glucose, Day 21, After: 329
  Glucose, Day 4, Before: 457
  Glucose, Day 6, Before: 350
  Glucose, Day 12, Before: 421
  Glucose, Day 21, Before: 380
[3]
  ALP: 453 ± 11^b U/L
  ALT: 143 ± 9^b U/L
  AST: 328 ± 17^a U/L
  Albumin: 2.59 ± 0.06^b g/dL
  CK: 6872 ± 1248^b U/L
  Creatinine: 1.05 ± 0.07^b mg/dL
  Glucose: 456 ± 13^ab mg/dL
  Insulin: 20.9 ± 0.9^bc μU/mL
  K: 5.53 ± 0.09^b mmol/L
  LDH: 2564 ± 85^ab U/L
  Total protein: 5.91 ± 0.07^b g/dL
  Urea: 65.6 ± 1.0^b mg/dL
  Uric acid: 6.49 ± 0.69^ab mg/dL
GLUT-1 [4]
  cerebral GLUT-1 expression: 46.82 ± 3.23^c
GLUT-3 [5]
  cerebral GLUT-3 expression: 43.41 ± 3.53^c
Tryptophan
  Brain Tryptophan: 4.54 ± 0.23^d mcg/g
[6]
  Kidney oct1: 50.02 ± 2.05^d
OCT-2
  Kidney oct2: 51.38 ± 1.17^d
[7]
  Kidney nfk: 120.31 ± 1.65^b
[8]
  Brain nfk: 150.59 ± 2.73^b
insulin
  Brain ins: 44.08 ± 3.31^c
[9]
  Kidney mrp2: 148.73 ± 2.74^b
[10]
  Brain Cr: 9.05 ± 0.56^d ng/g
  Serum Cr: 33.65 ± 2.26^d mcg/g

## chromium histidinate [CrHis]
[11]
  Serum Glucose at 0.5 hrs: 42.6 ± 6.8 mg/dL
[1]
  Initial BW: 195.43 ± 5.94 g
  BW Change: −10.17 ± 3.94^bc %
  Final BW: 176.57 ± 12.27^bc g
[2]
  Glucose, Day 4, After: 237
  Glucose, Day 6, After: 349
  Glucose, Day 12, After: 349
  Glucose, Day 21, After: 303
  Glucose, Day 4, Before: 403
  Glucose, Day 6, Before: 330
  Glucose, Day 12, Before: 340
  Glucose, Day 21, Before: 368
[3]
  ALP: 442 ± 13^bc U/L
  ALT: 125 ± 12^bc U/L
  AST: 291 ± 24^ab U/L
  Albumin: 2.74 ± 0.06^ab g/dL
  CK: 6745 ± 934^b U/L
  Creatinine: 0.90 ± 0.08^bc mg/dL
  Glucose: 423 ± 15^bc mg/dL
  Insulin: 22.0 ± 0.8^bc μU/mL
  K: 5.57 ± 0.12^b mmol/L
  LDH: 2367 ± 52^b U/L
  Total protein: 6.07 ± 0.12^b g/dL
  Urea: 62.1 ± 2.5^bc mg/dL
  Uric acid: 6.21 ± 0.57^b mg/dL
GLUT-1 [4]
  cerebral GLUT-1 expression: 53.81 ± 3.53^c
GLUT-3 [5]
  cerebral GLUT-3 expression: 49.41 ± 2.39^c
Serotonin
  Brain Serotonin: 512 ± 7
Tryptophan
  Brain Tryptophan: 4.74 ± 0.36^d mcg/g
[6]
  Kidney oct1: 50.90 ± 1.71^d
OCT-2
  Kidney oct2: 53.50 ± 1.13^d
[7]
  Kidney nfk: 118.86 ± 1.47^b
[8]
  Brain nfk: 134.24 ± 4.10^b
insulin
  Brain ins: 47.89 ± 4.67^c
[9]
  Kidney mrp2: 140.21 ± 2.05^b
[10]
  Brain Cr: 11.87 ± 0.89^c ng/g
  Serum Cr: 48.64 ± 2.70^c mcg/g
[12]
  Brain Cr Levels: 21.6 ± 1.7 ng/g
GLUT-1 [13]
  Cerebellum GLUT-1 Expression: 83.0 ± 4.2 % Control
  Cortex GLUT-1 Expression: 99.9 ± 7.3 % Control
  Hippocampus GLUT-1 Expression: 103.7 ± 2.8 % Control
GLUT-3 [14]
  Cerebellum GLUT-3 Expression: 166.9 ± 2.2 % Control
  Cortex GLUT-3 Expression: 287.5 ± 31.3 % Control
  Hippocampus GLUT-3 Expression: 177.8 ± 4.7 % Control
HNE
  Hippocampus HNE Expression: 140.1 ± 12.0 % Control
Nrf2
  Hippocampus Nrf2 Expression: 61.8 ± 1.4 % Control
GFAP
  Hippocampus GFAP Expression: 204.9 ± 4.9 % Control

## chromium picolinate [CrPic]
[11]
  Serum Glucose at 0.5 hrs: 40.7 ± 5.2 mg/dL
GLUT-1 [13]
  Cerebellum GLUT-1 Expression: 75.6 ± 7.6 % Control
  Cortex GLUT-1 Expression: 122.8 ± 1.3 % Control
  Hippocampus GLUT-1 Expression: 102.3 ± 5.5 % Control
GLUT-3 [14]
  Cerebellum GLUT-3 Expression: 206.3 ± 6.4 % Control
  Cortex GLUT-3 Expression: 319.5 ± 14.6 % Control
  Hippocampus GLUT-3 Expression: 198.6 ± 8.9 % Control
HNE
  Hippocampus HNE Expression: 162.5 ± 12.4 % Control
Nrf2
  Hippocampus Nrf2 Expression: 38.9 ± 3.6 % Control
GFAP
  Hippocampus GFAP Expression: 251.2 ± 9.1 % Control
